# Target: T1, CIB1 and αIIb interaction (GST-CIB1 : F-αIIb peptide) (Homo sapiens, UniProt Q99828)
# T1 construct: made in house; host or cells: BL-21 plus RIL cells (E. coli)
# T1 sequence (Q99828 1-191): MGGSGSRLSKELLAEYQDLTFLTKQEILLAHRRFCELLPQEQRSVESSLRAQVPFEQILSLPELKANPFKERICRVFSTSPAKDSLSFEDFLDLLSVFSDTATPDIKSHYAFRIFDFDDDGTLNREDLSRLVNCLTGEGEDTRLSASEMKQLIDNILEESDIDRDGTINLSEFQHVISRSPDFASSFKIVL
# Assay: FP assay, 384-well format (screen)
# Assay type: binding
# Design: 384-well SCREEN Efficacy (%): concentration or dose not given beside the values
# Settings: F-αIIb peptide
row,SMILES,384-well SCREEN Efficacy (%)
1,Br.CCCCCCCCCCCCCCCC[N+](C)(C)C.[Br-] [NCGC00164283-07],57
2,COc1cc(C(=O)NS(=O)(=O)c2ccccc2C)ccc1Cc1cn(C)c2ccc(NC(=O)OC3CCCC3)cc12 [NCGC00164547-06],38
3,CCOC(=O)N1CCN([N+]([O-])=NOc2ccc([N+](=O)[O-])cc2[N+](=O)[O-])CC1 [NCGC00165815-03],61

# Same assay, conditions: F-αIIb peptide; YES/NO
row,SMILES,384-well SCREEN Confirm?
1,Br.CCCCCCCCCCCCCCCC[N+](C)(C)C.[Br-] [NCGC00164283-07],YES
2,COc1cc(C(=O)NS(=O)(=O)c2ccccc2C)ccc1Cc1cn(C)c2ccc(NC(=O)OC3CCCC3)cc12 [NCGC00164547-06],YES
3,CCOC(=O)N1CCN([N+]([O-])=NOc2ccc([N+](=O)[O-])cc2[N+](=O)[O-])CC1 [NCGC00165815-03],YES

# Same assay, conditions: F-αIIb peptide; read-out: 384-well SCREEN IC50
row,SMILES,IC50 [µM]
1,Br.CCCCCCCCCCCCCCCC[N+](C)(C)C.[Br-] [NCGC00164283-07],15.8
2,COc1cc(C(=O)NS(=O)(=O)c2ccccc2C)ccc1Cc1cn(C)c2ccc(NC(=O)OC3CCCC3)cc12 [NCGC00164547-06],9.6
3,CCOC(=O)N1CCN([N+]([O-])=NOc2ccc([N+](=O)[O-])cc2[N+](=O)[O-])CC1 [NCGC00165815-03],1.8

# Target: T2, GST-CIB1 : F-scrambled peptide (Homo sapiens, UniProt Q99828)
# T2 construct: made in house; host or cells: BL-21 plus RIL cells (E. coli)
# T2 sequence (Q99828 1-191): T1 sequence (Q99828 1-191)
# Assay: FP scrambled-peptide counter screen, 384-well format
# Assay type: binding
# Settings: F-scrambled peptide
row,SMILES,384-well COUNTERSCREEN Efficacy (%)
1,Br.CCCCCCCCCCCCCCCC[N+](C)(C)C.[Br-] [NCGC00164283-07],44
2,COc1cc(C(=O)NS(=O)(=O)c2ccccc2C)ccc1Cc1cn(C)c2ccc(NC(=O)OC3CCCC3)cc12 [NCGC00164547-06],60
3,CCOC(=O)N1CCN([N+]([O-])=NOc2ccc([N+](=O)[O-])cc2[N+](=O)[O-])CC1 [NCGC00165815-03],48

# Same assay, conditions: F-scrambled peptide; *: Curve in opposite direction
row,SMILES,384-well COUNTERSCREEN Confirm?
1,Br.CCCCCCCCCCCCCCCC[N+](C)(C)C.[Br-] [NCGC00164283-07],YES
2,COc1cc(C(=O)NS(=O)(=O)c2ccccc2C)ccc1Cc1cn(C)c2ccc(NC(=O)OC3CCCC3)cc12 [NCGC00164547-06],YES*
3,CCOC(=O)N1CCN([N+]([O-])=NOc2ccc([N+](=O)[O-])cc2[N+](=O)[O-])CC1 [NCGC00165815-03],YES

# Same assay, conditions: F-scrambled peptide; read-out: 384-well COUNTERSCREEN IC50
row,SMILES,IC50 [µM]
1,Br.CCCCCCCCCCCCCCCC[N+](C)(C)C.[Br-] [NCGC00164283-07],2.5
2,COc1cc(C(=O)NS(=O)(=O)c2ccccc2C)ccc1Cc1cn(C)c2ccc(NC(=O)OC3CCCC3)cc12 [NCGC00164547-06],1
3,CCOC(=O)N1CCN([N+]([O-])=NOc2ccc([N+](=O)[O-])cc2[N+](=O)[O-])CC1 [NCGC00165815-03],15.8

# Target: T3, CIB1 and αIIb interaction (CIB1-GST : F-αIIb peptide) (Homo sapiens, UniProt Q99828)
# T3 construct: made in house; host or cells: BL-21 plus RIL cells (E. coli)
# T3 sequence (Q99828 1-191): T1 sequence (Q99828 1-191)
# Assay: FP assay, 1536-well qHTS format (primary and confirmatory screen)
# Assay type: binding
# Settings: confirmatory screen, YES/NO call
row,SMILES,CONFIRMATORY SCREEN Confirm?
1,Br.CCCCCCCCCCCCCCCC[N+](C)(C)C.[Br-] [NCGC00164283-07],YES
2,COc1cc(C(=O)NS(=O)(=O)c2ccccc2C)ccc1Cc1cn(C)c2ccc(NC(=O)OC3CCCC3)cc12 [NCGC00164547-06],YES
3,CCOC(=O)N1CCN([N+]([O-])=NOc2ccc([N+](=O)[O-])cc2[N+](=O)[O-])CC1 [NCGC00165815-03],YES

# Same assay, conditions: confirmatory screen, qHTS curve class; negative sign = inhibitory curve
row,SMILES,CONFIRMATORY SCREEN Curve Class
1,Br.CCCCCCCCCCCCCCCC[N+](C)(C)C.[Br-] [NCGC00164283-07],-2.1
2,COc1cc(C(=O)NS(=O)(=O)c2ccccc2C)ccc1Cc1cn(C)c2ccc(NC(=O)OC3CCCC3)cc12 [NCGC00164547-06],-1.2
3,CCOC(=O)N1CCN([N+]([O-])=NOc2ccc([N+](=O)[O-])cc2[N+](=O)[O-])CC1 [NCGC00165815-03],-1.2

# Same assay, conditions: confirmatory screen; negative = inhibition
row,SMILES,CONFIRMATORY SCREEN Efficacy (%)
1,Br.CCCCCCCCCCCCCCCC[N+](C)(C)C.[Br-] [NCGC00164283-07],-114
2,COc1cc(C(=O)NS(=O)(=O)c2ccccc2C)ccc1Cc1cn(C)c2ccc(NC(=O)OC3CCCC3)cc12 [NCGC00164547-06],-58
3,CCOC(=O)N1CCN([N+]([O-])=NOc2ccc([N+](=O)[O-])cc2[N+](=O)[O-])CC1 [NCGC00165815-03],-62

# Same assay, conditions: confirmatory screen; read-out: CONFIRMATORY SCREEN IC50
row,SMILES,IC50 [µM]
1,Br.CCCCCCCCCCCCCCCC[N+](C)(C)C.[Br-] [NCGC00164283-07],70.8
2,COc1cc(C(=O)NS(=O)(=O)c2ccccc2C)ccc1Cc1cn(C)c2ccc(NC(=O)OC3CCCC3)cc12 [NCGC00164547-06],14.1
3,CCOC(=O)N1CCN([N+]([O-])=NOc2ccc([N+](=O)[O-])cc2[N+](=O)[O-])CC1 [NCGC00165815-03],6.3

# Same assay, conditions: qHTS FP screen hits, Table S2; negative = inhibition
row,SMILES,Efficacy (%)
1,Br.CCCCCCCCCCCCCCCC[N+](C)(C)C.[Br-] [NCGC00164283-07],-75

# Same assay, conditions: qHTS FP screen hits, Table S2; one class per curve where COUNT > 1; negative sign = inhibitory curve
row,SMILES,Curve Class
1,Br.CCCCCCCCCCCCCCCC[N+](C)(C)C.[Br-] [NCGC00164283-07],-2.2

# Same assay, conditions: qHTS FP screen hits, Table S2; read-out: IC50
row,SMILES,IC50 [µM]
1,Br.CCCCCCCCCCCCCCCC[N+](C)(C)C.[Br-] [NCGC00164283-07],79.4

# Same assay, conditions: qHTS primary screen hits, Table S2; negative = inhibition
row,Efficacy (%),SMILES
1,-38,COc1cc(C(=O)NS(=O)(=O)c2ccccc2C)ccc1Cc1cn(C)c2ccc(NC(=O)OC3CCCC3)cc12 [NCGC00164547-06]

# Same assay, conditions: qHTS primary screen hits, Table S2; negative sign = inhibitory curve; several classes where COUNT > 1
row,Curve Class,SMILES
1,-2.4,COc1cc(C(=O)NS(=O)(=O)c2ccccc2C)ccc1Cc1cn(C)c2ccc(NC(=O)OC3CCCC3)cc12 [NCGC00164547-06]

# Same assay, conditions: qHTS primary screen hits, Table S2; read-out: IC50
row,IC50 [µM],SMILES
1,35.5,COc1cc(C(=O)NS(=O)(=O)c2ccccc2C)ccc1Cc1cn(C)c2ccc(NC(=O)OC3CCCC3)cc12 [NCGC00164547-06]

# Target: T2, GST-CIB1 : F-scrambled peptide
# Assay: FP scrambled-peptide counter screen, 1536-well format
# Assay type: binding
# Settings: scrambled-peptide counterscreen
row,SMILES,COUNTERSCREEN Efficacy (%)
1,Br.CCCCCCCCCCCCCCCC[N+](C)(C)C.[Br-] [NCGC00164283-07],0
2,COc1cc(C(=O)NS(=O)(=O)c2ccccc2C)ccc1Cc1cn(C)c2ccc(NC(=O)OC3CCCC3)cc12 [NCGC00164547-06],37
3,CCOC(=O)N1CCN([N+]([O-])=NOc2ccc([N+](=O)[O-])cc2[N+](=O)[O-])CC1 [NCGC00165815-03],-56

# Same assay, conditions: scrambled-peptide counterscreen, YES/NO call
row,SMILES,COUNTERSCREEN Confirm?
1,Br.CCCCCCCCCCCCCCCC[N+](C)(C)C.[Br-] [NCGC00164283-07],YES
2,COc1cc(C(=O)NS(=O)(=O)c2ccccc2C)ccc1Cc1cn(C)c2ccc(NC(=O)OC3CCCC3)cc12 [NCGC00164547-06],YES
3,CCOC(=O)N1CCN([N+]([O-])=NOc2ccc([N+](=O)[O-])cc2[N+](=O)[O-])CC1 [NCGC00165815-03],YES

# Same assay, conditions: scrambled-peptide counterscreen, qHTS curve class
row,SMILES,COUNTERSCREEN Curve Class
1,Br.CCCCCCCCCCCCCCCC[N+](C)(C)C.[Br-] [NCGC00164283-07],4
2,CCOC(=O)N1CCN([N+]([O-])=NOc2ccc([N+](=O)[O-])cc2[N+](=O)[O-])CC1 [NCGC00165815-03],-2.2

# Same assay, conditions: scrambled-peptide counterscreen; read-out: COUNTERSCREEN IC50
row,SMILES,IC50 [µM]
1,COc1cc(C(=O)NS(=O)(=O)c2ccccc2C)ccc1Cc1cn(C)c2ccc(NC(=O)OC3CCCC3)cc12 [NCGC00164547-06],50.1
2,CCOC(=O)N1CCN([N+]([O-])=NOc2ccc([N+](=O)[O-])cc2[N+](=O)[O-])CC1 [NCGC00165815-03],44.7
